# In US7132252B2, “Methods for detecting the interaction of compounds with cytochrome P450 using optical molecular sensors” (Invitrogen Corporation, priority 1998, dated 2006):
# T1: CYP 2B6 (Homo sapiens, UniProt P20813)
# T1 sequence (P20813 1-491): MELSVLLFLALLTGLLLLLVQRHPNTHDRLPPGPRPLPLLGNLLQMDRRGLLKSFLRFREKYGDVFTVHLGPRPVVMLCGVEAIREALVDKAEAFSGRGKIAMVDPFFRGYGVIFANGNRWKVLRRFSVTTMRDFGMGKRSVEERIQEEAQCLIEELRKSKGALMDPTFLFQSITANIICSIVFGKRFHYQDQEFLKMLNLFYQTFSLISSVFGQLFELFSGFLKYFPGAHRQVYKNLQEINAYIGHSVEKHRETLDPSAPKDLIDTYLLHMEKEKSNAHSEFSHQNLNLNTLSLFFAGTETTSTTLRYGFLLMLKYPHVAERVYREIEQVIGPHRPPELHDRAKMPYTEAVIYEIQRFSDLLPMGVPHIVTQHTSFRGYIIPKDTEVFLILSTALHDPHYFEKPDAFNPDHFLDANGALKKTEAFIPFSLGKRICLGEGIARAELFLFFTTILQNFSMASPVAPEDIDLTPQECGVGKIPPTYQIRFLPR
# B1: CYP 2C8 (Homo sapiens) (protein)
# chain: MEPFVVLVLCLSFMLLFSLWRQSCRRRKLPPGPTPLPIIGNMLQIDVKDICKSFTNFSKVYGPVFTVYFGMNPIVVFHGYEAVKEALIDNGEEFSGRGNSPISQRITKGLGIISSNGKRWKEIRRFSLTTLRNFGMGKRSIEDRVQEEAHCLVEELRKTKASPCDPTFILGCAPCNVICSVVFQKRFDYKDQNFLTLMKRFNENFRILNSPWIQVCNNFPLLIDCFPGTHNKVLKNVALTRSYIREKVKEHQASLDVNNPRDFIDCFLIKMEQEKDNQKSEFNIENLVGTVADLFVAGTETTSTTLRYGLLLLLKHPEVTAKVQEEIDHVIGRHRSPCMQDRSHMPYTDAVVHEIQRYSDLVPTGVPHAVTTDTKFRNYLIPKGTTIMALLTSVLHDDKEFPNPNIFDPGHFLDKNGNFKKSDYFMPFSAGKRICAGEGLARMELFLFLTTILQNFNLKSVDDLKNLNTTAVTKGIVSLPPSYQICFIPV
# B2: CYP 2C9 (Homo sapiens) (protein)
# chain: MDSLVVLVLCLSCLLLLSLWRQSSGRGKLPPGPTPLPVIGNILQIGIKDISKSLTNLSKVYGPVFTLYFGLKPIVVLHGYEAVKEALIDLGEEFSGRGIFPLAERANRGFGIVFSNGKKWKEIRRFSLMTLRNFGMGKRSIEDRVQEEARCLVEELRKTKASPCDPTFILGCAPCNVICSIIFHKRFDYKDQQFLNLMEKLNENIKILSSPWIQICNNFSPIIDYFPGTHNKLLKNVAFMKSYILEKVKEHQESMDMNNPQDFIDCFLMKMEKEKHNQPSEFTIESLENTAVDLFGAGTETTSTTLRYALLLLLKHPEVTAKVQEEIERVIGRNRSPCMQDRSHMPYTDAVVHEVQRYIDLLPTSLPHAVTCDIKFRNYLIPKGTTILISLTSVLHDNKEFPNPEMFDPHHFLDEGGNFKKSKYFMPFSAGKRICVGEALAGMELFLFLTSILQNFNLKSLVDPKNLDTTPVVNGFASVPPFYQLCFIPV
# Experiments:
# CYP3A4 [1] = target: T2, CYP3A4 (Homo sapiens, UniProt P08684); assay: Rate of hydroxylation of BOM-09B by CYP 3A4; format: biochemical
# Method: The racemic compound mixture (designated BOM-09B) was tested for activity with cytochrome P450 isozymes. […] The CYP 3A4 assay was performed in a 96-well plate at 37° C. in a volume of 100 μL/well. BOM-09B was diluted from a stock solution of 1 mM in acetonitrile to a 4×concentration of 80 μM in 100 mM K+ phosphate buffer of which 25 μl was added to the appropriate wells. […] The cytochrome P450 isozyme CYP3A4 was diluted to give a 2 pmol enzyme per well. Enzymic conversion of the substrate to products was allowed to proceed for 1 hour with fluorescence reads taken every 4 minutes on a fluorescence microtiter plate reader. The solution was illuminated with an 395/25 nm excitation filter and fluorescence emission was detected through a 460/40 nm the emission filter.
# CYP2D6 = CYP2D6 (Homo sapiens, UniProt P10635); assay: Apparent inhibition constants of drugs for CYP 2D6 with MOBFC as sensor
# Method: CYP 2D6 was incubated with 10 μM concentrations of various known inhibitors and drug substrates and residual CYP 2D6 activity assayed with the fluorogenic substrate MOBFC. The assay was performed in a 96-well plate at room temp and at a volume of 100 μl/well. 4×enzyme buffer was prepared and 25 μl was added to each well on the plate, for final assay concentrations of 3.3 mM glucose-6-phosphate, 0.4 units/ml glucose-6-phosphate dehydrogenase and 10 mM MgCl2 in 100 mM K+ phosphate, pH 8.0. […] Six consecutive 1:3 dilutions were made and 50 μl of each was added to appropriate wells on the assay plate. The CYP2D6 was diluted to a solution of 2 pmol/10 μl in 100 mM K+ phosphate and 10 μl was added to each well. 20 μl of buffer was added to each well containing standard. The drug inhibitors were allowed to pre-incubated with the CYP 2D6 enzyme for 1 hr prior to the addition of the MOBFC substrate. […] Hydroxy-trifluoro-methylcoumarin was diluted to 100 μM in K+ phosphate buffer, and seven consecutive 1:2 dilutions were made. […] After addition of 10 μl of 13 mM NADP+ solutions to all wells the assay plate was placed into the fluorescence microtiter plate reader and fluorescence measured at 3 minute intervals for 60 minutes.
# CYP3A4 [2] = target: T2, CYP3A4; assay: Kinetic properties of fluorescein-based fluorogenic substrates with CYP 3A4; format: biochemical
# Method: (§1) Dibenzylfluorescein (DBF) was purchased form Gentest, Woburn, Mass. […] DBF, BOMF and DBOMF were diluted from a stock solution of 2 mM in acetonitrile to a 4×concentration of 80 μM in 100 mM K+ phosphate buffer. Seven 1:2 dilutions were made of each substrate of which 25 μl was added to the appropriate wells. […] The cytochrome P450 isozyme CYP3A4 was diluted to give a 0.5 pmol enzyme per well and added in a volume of 10 μl/well in K+ phosphate, pH 8.0. Enzymatic conversion of the substrate to products was allowed to proceed for 1 hour with fluorescence reads taken every four minutes on a fluorescence microtiter plate reader. The solution was illuminated using an 485/20 nm excitation filter and fluorescence emission was detected through a 530/25 nm the emission filter.
# CYP2C9 = CYP2C9 (Homo sapiens, UniProt P11712); assay: Kinetic properties of substrate BOMF with CYP 2C9 (Tris-HCl buffer); format: biochemical
# CYP3A4 [3] = target: T2, CYP3A4; assay: Kinetics of BOMR and BR toward CYP 3A4 (FIG. 4); format: biochemical; conditions: from FIG. 4 data
# From the text: Whichever of the four abstractable hydrogen atoms (designated H^1 and H^2 in this representation of BOMR) is removed in the initial reaction step, with reference to Reaction Scheme 1 of FIG. 1, the hydroxylation product will spontaneously decompose to the free resorufin dye. In addition, the benzyloxy group, attached to the carbon carrying the two hydrogens designated H^2, contributes an inductive electronic effect on that carbon, which can stabilize the radical formed during abstraction of one of the H^2 hydrogens by a cytochrome P450.
# Optimization of assay conditions was, and is preferably, accomplished through statistically validated Design of Experiments methodologies, using the commercial software package “Design-Expert®” produced by Stat-Ease® Inc. The data shown in FIGS. 4 and 5 were obtained with initial optimization.
# CYP3A4 [4] = target: T2, CYP3A4; assay: Kinetic properties of fluorogenic substrates with CYP 3A4; format: biochemical
# From the text: For further understanding these terms in the context of this invention, attention is directed to FIG. 4 and the analysis of FIG. 4.
# (respectively, MFC and MR).
# CYP 2B6 = target: T1, CYP 2B6; assay: Kinetic properties of fluorogenic substrates with CYP 2B6; format: biochemical
# CYP3A4 [5] = target: T2, CYP3A4; assay: in vitro; conditions: pH 8, % inhibition; for inhibition at 20 min, 10 µM: Condition A; for inhibition at 40 min, 10 µM: Condition B
# CYP3A4 [6] = target: T2, CYP3A4
# [7] = substrate: O=C(OCOCc1ccccc1)c1ccccc1-c1c2ccc(=O)cc-2oc2cc(OCOCc3ccccc3)ccc12; assay: Kinetic properties of fluorescein-based fluorogenic substrates with CYP 2C8; format: biochemical, human; conditions: other: 100 mM K+ phosphate buffer, pH 7.5
# Method: as §1
# (§2) In deviation from the protocol described in Example 32, the phosphate-based buffer (100 mM K+ phosphate, pH 8.0) was replaced throughout the procedure by 100 mM K+ phosphate buffer, pH 7.5. […] Specifically, the substrate dibenzylfluorescein (DBF) (purchased form Gentest, Woburn, Mass.) and the sensor of the present invention DBOMF were tested for activity with CYP 2C8.
# [8] = substrate: O=C(OCc1ccccc1)c1ccccc1-c1c2ccc(=O)cc-2oc2cc(OCc3ccccc3)ccc12; assay: as above; format: biochemical, human; conditions: other: 100 mM K+ phosphate buffer, pH 7.5
# Method: as §1, §2
# [9] = substrate: COCOc1ccc2cc(C#N)c(=O)oc2c1; assay: Kinetic properties of fluorogenic substrates with CYP 2C9; format: biochemical, human; conditions: other: — = too low to quantify
# [10] = substrate: COc1ccc(COc2ccc3c(C(F)(F)F)cc(=O)oc3c2)cc1; assay: as above; format: biochemical, human; conditions: other: — = too low to quantify
# [11] = substrate: COc1ccc2cc(C#N)c(=O)oc2c1; assay: as above; format: biochemical, human; conditions: other: — = too low to quantify
# [12] = substrate: N#Cc1cc2ccc(OCOCc3ccccc3)cc2oc1=O; assay: as above; format: biochemical, human; conditions: other: — = too low to quantify
# [13] = substrate: COc1ccc(COc2ccc3nc4ccc(=O)cc-4oc3c2)cc1; assay: as above; format: biochemical, human; conditions: other: — = too low to quantify
# [14] = substrate: CCCCCCCCOCOc1ccc2nc3ccc(=O)cc-3oc2c1; assay: as above; format: biochemical, human; conditions: other: — = too low to quantify
# [15] = substrate: O=C(O)c1ccccc1-c1c2ccc(=O)cc-2oc2cc(OCOCc3ccccc3)ccc12; assay: Kinetic properties of substrate BOMF with CYP 2C9 (Tris-HCl buffer); format: biochemical, human; conditions: other: 200 mM Tris-HCl buffer, pH 7.5
# [16] = turnover rate at 1.25 uM substrate, — = too low to quantify
# [17] = turnover rate at 10 uM substrate, — = too low to quantify
# Chain of CYP2D6 (P10635 whole entry): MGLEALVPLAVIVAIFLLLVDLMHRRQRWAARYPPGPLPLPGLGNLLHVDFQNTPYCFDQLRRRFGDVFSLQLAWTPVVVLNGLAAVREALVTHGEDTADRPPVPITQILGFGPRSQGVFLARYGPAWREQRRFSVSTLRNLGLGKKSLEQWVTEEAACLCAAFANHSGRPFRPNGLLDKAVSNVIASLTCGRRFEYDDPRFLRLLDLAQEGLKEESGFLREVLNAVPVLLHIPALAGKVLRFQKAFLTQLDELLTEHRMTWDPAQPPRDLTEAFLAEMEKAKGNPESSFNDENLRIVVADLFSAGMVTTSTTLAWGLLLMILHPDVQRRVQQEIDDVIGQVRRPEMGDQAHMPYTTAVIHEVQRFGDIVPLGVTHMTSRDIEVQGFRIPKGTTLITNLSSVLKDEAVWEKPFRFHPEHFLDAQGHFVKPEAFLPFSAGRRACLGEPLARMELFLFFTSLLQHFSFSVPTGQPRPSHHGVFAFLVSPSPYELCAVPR
# T2 sequence (P08684 whole entry): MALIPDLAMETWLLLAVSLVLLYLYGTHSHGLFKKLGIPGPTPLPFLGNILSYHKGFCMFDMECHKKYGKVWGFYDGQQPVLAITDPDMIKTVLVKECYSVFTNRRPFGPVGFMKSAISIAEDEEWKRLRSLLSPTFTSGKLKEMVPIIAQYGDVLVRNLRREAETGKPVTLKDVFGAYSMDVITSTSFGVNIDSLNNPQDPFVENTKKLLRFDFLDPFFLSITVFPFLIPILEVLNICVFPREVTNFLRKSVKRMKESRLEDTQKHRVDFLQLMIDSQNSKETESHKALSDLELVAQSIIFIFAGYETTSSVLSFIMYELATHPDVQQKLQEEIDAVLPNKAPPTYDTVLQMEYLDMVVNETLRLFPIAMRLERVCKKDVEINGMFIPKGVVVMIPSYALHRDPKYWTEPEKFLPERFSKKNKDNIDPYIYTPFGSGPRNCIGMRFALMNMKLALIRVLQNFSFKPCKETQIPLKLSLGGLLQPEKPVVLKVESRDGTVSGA
molecule,measurement,setting,value
NC1CCCCC1NC(=O)c1cc2ccc(OCOCc3ccccc3)cc2oc1=O (racemic) [BOM-09B],conversion rate,"CYP3A4 [1]; 20 μM substrate, 37° C., 2 pmol enzyme per well",0.75 pmol substrate/pmol enzyme·min
same,rate of conversion compared with BOMCC,CYP3A4 [1]; identical conditions,half that of BOMCC
CC[C@H]1[C@@H]2C[C@H]3[C@@H]4N(C)c5ccccc5[C@]45C[C@@H]([C@@H]2[C@H]5O)N3[C@@H]1O [Amjaline],Ki,CYP2D6,> 30 µM
"O=C(O)c1ccccc1-c1c2ccc(=O)cc-2oc2cc(OCOCc3ccccc3)ccc12 [BOMF, Benzyloxymethylfluorescein]",type of kinetics,CYP3A4 [2],MichaelisMenten
same,v (1.25 uM),"CYP3A4 [2]; turnover rate at 1.25 uM substrate, 100 mM K+ phosphate, pH 8.0",0.53 min⁻¹
same,v (10 uM),"CYP3A4 [2]; turnover rate at 10 uM substrate, 100 mM K+ phosphate, pH 8.0",3.40 min⁻¹
same,type of kinetics,CYP2C9,MichaelisMenten
same,v (1.25 uM),"CYP2C9; turnover rate at 1.25 uM substrate, 200 mM Tris-HCl buffer, pH 7.5",1.28 min⁻¹
same,v (10 uM),"CYP2C9; turnover rate at 10 uM substrate, 200 mM Tris-HCl buffer, pH 7.5",2.84 min⁻¹
"O=c1ccc2nc3ccc(OCc4ccccc4)cc3oc-2c1 [BR, Benzylresorufin, reference compound]",turnover rate (kcat),CYP3A4 [3],0.00167 s⁻¹
same,Km,"CYP3A4 [3]; human, CYP 3A4 enzyme",5.3 µM
same,type of kinetics,CYP3A4 [4],Michaelis-Menten
same,v (1.25 uM),CYP3A4 [4]; [16],0.02 min⁻¹
same,v (10 uM),CYP3A4 [4]; [17],0.08 min⁻¹
same,type of kinetics,CYP 2B6,notMichaelis-Menten
same,v (1.25 uM),CYP 2B6; [16],0.42 min⁻¹
same,v (10 uM),CYP 2B6; [17],0.42 min⁻¹
CN(C)CCC(c1ccc(Cl)cc1)c1ccccn1 (stereo not drawn) [Chlorpheniramine],Ki,CYP2D6,2.5 µM
COc1cccc2c1C(=O)c1c(O)c3c(c(O)c1C2=O)C[C@@](O)(C(=O)CO)C[C@@H]3O[C@H]1C[C@H](N)[C@H](O)[C@H](C)O1 [Doxorubicin],"inhibition at 20 min, 10 µM",CYP3A4 [5]; substrate BOMCC,81%
same,"inhibition at 40 min, 10 µM",CYP3A4 [5]; substrate BOMCC,79%
same,"inhibition at 20 min, 10 µM",CYP3A4 [5]; substrate BOMR,29%
same,"inhibition at 40 min, 10 µM",CYP3A4 [5]; substrate BOMR,72%
same,"inhibition at 20 min, 10 µM",CYP3A4 [5]; substrate DBOMF,3%
same,"inhibition at 40 min, 10 µM",CYP3A4 [5]; substrate DBOMF,33%
same,Ki,CYP2D6,8 µM
same,metabolism-dependent inhibitory activity against the CYP3A4 isozyme,CYP3A4 [6],at least partial metabolism-dependent inhibitory activity
B1,Km,[7],3.6 µM
same,kcat,[7],0.035 s⁻¹
same,kcat/Km,[7],9722 M⁻¹ s⁻¹
same,Km,[8],2.0 µM
same,kcat,[8],0.0067 s⁻¹
same,kcat/Km,[8],3333 M⁻¹ s⁻¹
B2,Km,[9],20 µM
same,kcat/Km,[9],167 M⁻¹ s⁻¹
same,Km,[10],7.7 µM
same,kcat,[10],0.00483 s⁻¹
same,kcat/Km,[10],628 M⁻¹ s⁻¹
same,Km,[11],70.9 µM
same,kcat,[11],0.00667 s⁻¹
same,kcat/Km,[11],85 M⁻¹ s⁻¹
same,Km,[12],43.0 µM
same,kcat,[12],0.035 s⁻¹
same,kcat/Km,[12],814 M⁻¹ s⁻¹
same,Km,[13],0.4 µM
same,kcat/Km,[13],952 M⁻¹ s⁻¹
same,Km,[14],2.6 µM
same,kcat,[14],0.0067 s⁻¹
same,kcat/Km,[14],2564 M⁻¹ s⁻¹
same,Km,[15],4.5 µM
same,kcat,[15],0.075 s⁻¹
same,kcat/Km,[15],16666 M⁻¹ s⁻¹
